Reference: ChEMBL document CHEMBL3045112, “In vitro antimicrobial assessment of coumarin-based s-triazinyl piperazines” (2012)
In brackets after ≈: the same amount, converted by molar mass.

Experiments:
Assay type in all cases: functional
Candida albicans [1] = assay: Antifungal activity against Candida albicans after 48 hr by agar plate method
Bacillus subtilis [2] = assay: Antibacterial activity against Bacillus subtilis after 24 hr by agar plate method
Escherichia coli [3] = assay: Antibacterial activity against Escherichia coli after 24 hr by disk diffusion test
Pseudomonas aeruginosa [4] = assay: Antibacterial activity against Pseudomonas aeruginosa after 24 hr by agar plate method
Staphylococcus aureus [5] = assay: Antibacterial activity against Staphylococcus aureus after 24 hr by disk diffusion test
Bacillus subtilis [6] = assay: Antibacterial activity against Bacillus subtilis after 24 hr by disk diffusion test
Escherichia coli [7] = assay: Antibacterial activity against Escherichia coli after 24 hr by agar plate method
Pseudomonas aeruginosa [8] = assay: Antibacterial activity against Pseudomonas aeruginosa after 24 hr by disk diffusion test
Candida albicans [9] = assay: Antifungal activity against Candida albicans after 48 hr by disk diffusion test
Aspergillus niger [10] = assay: Antifungal activity against Aspergillus niger after 48 hr by disk diffusion test
Staphylococcus aureus [11] = assay: Antibacterial activity against Staphylococcus aureus after 24 hr by agar plate method
Aspergillus niger [12] = assay: Antifungal activity against Aspergillus niger after 48 hr by agar plate method

MIC (Candida albicans [1]) [µg/mL] | MIC (Bacillus subtilis [2]) [µg/mL] | MIC (Pseudomonas aeruginosa [4]) [µg/mL] | MIC (Escherichia coli [7]) [µg/mL] | MIC (Staphylococcus aureus [11]) [µg/mL] | MIC (Aspergillus niger [12]) [µg/mL] | SMILES | inhibition zone (IZ) (Escherichia coli [3]) [mm] | inhibition zone (IZ) (Staphylococcus aureus [5]) [mm] | inhibition zone (IZ) (Bacillus subtilis [6]) [mm] | inhibition zone (IZ) (Pseudomonas aeruginosa [8]) [mm] | inhibition zone (IZ) (Candida albicans [9]) [mm] | inhibition zone (IZ) (Aspergillus niger [10]) [mm]
100 (≈ 225 µM) | 100 (≈ 225 µM) | 100 (≈ 225 µM) | 100 (≈ 225 µM) | 100 (≈ 225 µM) | 100 (≈ 225 µM) | Cc1cc(=O)oc2cc(Oc3nc(Nc4ccccc4)nc(N4CCN(C)CC4)n3)ccc12 | 16 | 19 | 21 | 20 | 20 | 16
100 (≈ 218 µM) | 50 (≈ 109 µM) | 100 (≈ 218 µM) | 100 (≈ 218 µM) | 100 (≈ 218 µM) | 25 (≈ 54.5 µM) | CC(C)N1CCN(c2nc(Nc3ccccc3)nc(Oc3cc(=O)oc4ccccc34)n2)CC1 | 18 | 20 | 18 | 18 | 17 | 21
100 (≈ 212 µM) | 100 (≈ 212 µM) | 100 (≈ 212 µM) | 100 (≈ 212 µM) | 100 (≈ 212 µM) | 100 (≈ 212 µM) | Cc1cc(=O)oc2cc(Oc3nc(Nc4ccccc4)nc(N4CCN(C(C)C)CC4)n3)ccc12 | 18 | 19 | 18 | 18 | 19 | 19
25 (≈ 52.9 µM) | 50 (≈ 106 µM) | 25 (≈ 52.9 µM) | 12.5 (≈ 26.5 µM) | 25 (≈ 52.9 µM) | 50 (≈ 106 µM) | CC(=O)N1CCN(c2nc(Nc3ccccc3)nc(Oc3ccc4c(C)cc(=O)oc4c3)n2)CC1 | 23 | 22 | 23 | 23 | 25 | 21
50 (≈ 116 µM) | 100 (≈ 232 µM) | 100 (≈ 232 µM) | 50 (≈ 116 µM) | 100 (≈ 232 µM) | 50 (≈ 116 µM) | Cc1cc(=O)oc2cc(Oc3nc(Nc4ccccc4)nc(N4CCOCC4)n3)ccc12 | 22 | 20 | 20 | 17 | 22 | 21
100 (≈ 218 µM) | 50 (≈ 109 µM) | 100 (≈ 218 µM) | 100 (≈ 218 µM) | 100 (≈ 218 µM) | 100 (≈ 218 µM) | CCN1CCN(c2nc(Nc3ccccc3)nc(Oc3ccc4c(C)cc(=O)oc4c3)n2)CC1 | 16 | 17 | 21 | 21 | 20 | 20
50 (≈ 116 µM) | 100 (≈ 233 µM) | 100 (≈ 233 µM) | 25 (≈ 58.2 µM) | 50 (≈ 116 µM) | 12.5 (≈ 29.1 µM) | Cc1cc(=O)oc2cc(Oc3nc(Nc4ccccc4)nc(N4CCCCC4)n3)ccc12 | 22 | 21 | 19 | 21 | 22 | 22
25 (≈ 49.2 µM) | 12.5 (≈ 24.6 µM) | 50 (≈ 98.3 µM) | 25 (≈ 49.2 µM) | 6.25 (≈ 12.3 µM) | 25 (≈ 49.2 µM) | Cc1cc(=O)oc2cc(Oc3nc(Nc4ccccc4)nc(N4CCN(c5ncccn5)CC4)n3)ccc12 | 21 | 24 | 24 | 23 | 24 | 22

More lines, now with the values behind:

SMILES | MIC (Candida albicans [1]) [µg/mL] | MIC (Bacillus subtilis [2]) [µg/mL] | MIC (Pseudomonas aeruginosa [4]) [µg/mL] | MIC (Escherichia coli [7]) [µg/mL] | MIC (Staphylococcus aureus [11]) [µg/mL] | MIC (Aspergillus niger [12]) [µg/mL] | inhibition zone (IZ) (Escherichia coli [3]) [mm] | inhibition zone (IZ) (Staphylococcus aureus [5]) [mm] | inhibition zone (IZ) (Bacillus subtilis [6]) [mm] | inhibition zone (IZ) (Pseudomonas aeruginosa [8]) [mm] | inhibition zone (IZ) (Candida albicans [9]) [mm] | inhibition zone (IZ) (Aspergillus niger [10]) [mm]
O=c1cc(Oc2nc(Nc3ccccc3)nc(N3CCN(c4ncccn4)CC3)n2)c2ccccc2o1 | 12.5 (≈ 25.3 µM) | 12.5 (≈ 25.3 µM) | 50 (≈ 101 µM) | 50 (≈ 101 µM) | 12.5 (≈ 25.3 µM) | 12.5 (≈ 25.3 µM) | 21 | 23 | 22 | 20 | 22 | 19
Cc1cc(=O)oc2cc(Oc3nc(Nc4ccccc4)nc(N4CCN(c5ccccn5)CC4)n3)ccc12 | 25 (≈ 49.3 µM) | 12.5 (≈ 24.6 µM) | 50 (≈ 98.5 µM) | 25 (≈ 49.3 µM) | 12.5 (≈ 24.6 µM) | 12.5 (≈ 24.6 µM) | 22 | 23 | 24 | 22 | 23 | 23
O=c1cc(Oc2nc(Nc3ccccc3)nc(N3CCN(c4cccc(Cl)c4)CC3)n2)c2ccccc2o1 | 12.5 (≈ 23.7 µM) | 25 (≈ 47.4 µM) | 25 (≈ 47.4 µM) | 25 (≈ 47.4 µM) | 50 (≈ 94.9 µM) | 50 (≈ 94.9 µM) | 22 | 21 | 21 | 23 | 23 | 20
O=c1cc(Oc2nc(Nc3ccccc3)nc(N3CCN(c4ccccc4)CC3)n2)c2ccccc2o1 | 100 (≈ 203 µM) | 100 (≈ 203 µM) | 100 (≈ 203 µM) | 100 (≈ 203 µM) | 100 (≈ 203 µM) | 100 (≈ 203 µM) | 16 | 17 | 17 | 15 | 16 | 15
CN1CCN(c2nc(Nc3ccccc3)nc(Oc3cc(=O)oc4ccccc34)n2)CC1 | 100 (≈ 232 µM) | 100 (≈ 232 µM) | 100 (≈ 232 µM) | 100 (≈ 232 µM) | 100 (≈ 232 µM) | 100 (≈ 232 µM) | 16 | 16 | 20 | 17 | 17 | 14
Cc1cc(=O)oc2cc(Oc3nc(Nc4ccccc4)nc(N4CCN(c5ccccc5)CC4)n3)ccc12 | 100 (≈ 197 µM) | 100 (≈ 197 µM) | 100 (≈ 197 µM) | 100 (≈ 197 µM) | 100 (≈ 197 µM) | 100 (≈ 197 µM) | 17 | 17 | 20 | 15 | 18 | 17
CC(=O)N1CCN(c2nc(Nc3ccccc3)nc(Oc3cc(=O)oc4ccccc34)n2)CC1 | 50 (≈ 109 µM) | 100 (≈ 218 µM) | 50 (≈ 109 µM) | 12.5 (≈ 27.3 µM) | 25 (≈ 54.5 µM) | 100 (≈ 218 µM) | 22 | 23 | 20 | 22 | 20 | 18
O=c1cc(Oc2nc(Nc3ccccc3)nc(N3CCN(c4ccccn4)CC3)n2)c2ccccc2o1 | 25 (≈ 50.7 µM) | 25 (≈ 50.7 µM) | 50 (≈ 101 µM) | 25 (≈ 50.7 µM) | 12.5 (≈ 25.3 µM) | 12.5 (≈ 25.3 µM) | 20 | 23 | 21 | 20 | 21 | 20
O=c1cc(Oc2nc(Nc3ccccc3)nc(N3CCOCC3)n2)c2ccccc2o1 | 100 (≈ 240 µM) | 100 (≈ 240 µM) | 100 (≈ 240 µM) | 25 (≈ 59.9 µM) | 100 (≈ 240 µM) | 6.25 (≈ 15 µM) | 22 | 19 | 16 | 17 | 19 | 21
Cc1cc(=O)oc2cc(Oc3nc(Nc4ccccc4)nc(N4CCN(c5cccc(Cl)c5Cl)CC4)n3)ccc12 | 12.5 (≈ 21.7 µM) | 12.5 (≈ 21.7 µM) | 12.5 (≈ 21.7 µM) | 12.5 (≈ 21.7 µM) | 25 (≈ 43.4 µM) | 12.5 (≈ 21.7 µM) | 23 | 24 | 25 | 24 | 25 | 23
Cc1cc(=O)oc2cc(Oc3nc(Nc4ccccc4)nc(N4CCN(c5cccc(Cl)c5)CC4)n3)ccc12 | 12.5 (≈ 23.1 µM) | 50 (≈ 92.4 µM) | 12.5 (≈ 23.1 µM) | 25 (≈ 46.2 µM) | 25 (≈ 46.2 µM) | 25 (≈ 46.2 µM) | 22 | 22 | 23 | 24 | 25 | 23
O=c1cc(Oc2nc(Nc3ccccc3)nc(N3CCN(c4cccc(Cl)c4Cl)CC3)n2)c2ccccc2o1 | 12.5 (≈ 22.3 µM) | 12.5 (≈ 22.3 µM) | 12.5 (≈ 22.3 µM) | 50 (≈ 89.1 µM) | 25 (≈ 44.5 µM) | 12.5 (≈ 22.3 µM) | 21 | 22 | 23 | 23 | 22 | 20
O=c1cc(Oc2nc(Nc3ccccc3)nc(N3CCCCC3)n2)c2ccccc2o1 | 100 (≈ 241 µM) | 50 (≈ 120 µM) | 100 (≈ 241 µM) | 25 (≈ 60.2 µM) | 100 (≈ 241 µM) | 12.5 (≈ 30.1 µM) | 22 | 19 | 20 | 16 | 20 | 21
CCN1CCN(c2nc(Nc3ccccc3)nc(Oc3cc(=O)oc4ccccc34)n2)CC1 | 100 (≈ 225 µM) | 50 (≈ 112 µM) | 100 (≈ 225 µM) | 100 (≈ 225 µM) | 100 (≈ 225 µM) | 100 (≈ 225 µM) | 15 | 17 | 20 | 18 | 19 | 17
